Laboratory results taken from patent publication US20200046731A1, “BI[…] STATE (17- β)-HYDROXY-4-ANDROSTEN-3-ONE ESTERS” (Lipocine Inc., priority 2014, published 2020).

Experiment: Serum testosterone responder analysis after oral dosing (Table 3)
Type: in vivo, human
Method: Some of the dosage forms of compositions described herein comprising or prepared from (17-β)-3-Oxoandrost-4-en-17-yl tridecanoate were administered to human subjects as a single dose of the esters to subjects. Serial blood samples were drawn at predetermined time (e.g., t=0, 12, 24, etc.) and analyzed for testosterone concentration using a validated HPLC-MS/MS analytical method. The Cmax, Cavg t1-t2, Tmax and AUCt1-t2 are calculated for testosterone in the serum of the subjects. Pharmacokinetic and statistical analyses are performed on the data obtained from the subjects. The pharmacokinetic parameters are defined as follows: • AUCt1-t2: The area under the serum concentration versus time curve, from time t1 (in hours) to time t2 (in hours) measurable concentration of the administered drug, as calculated by the linear trapezoidal method. […] This represents the average serum testosterone level over a period starting from time 0 (zero) hours to […] post-administration of dose. It should also be noted that Cavg t0-t24 is also referred to as simply “Cavg” in this invention. • Cavg t0-t12: The average serum concentration of testosterone obtained by dividing the AUCt0-t12 value by 12. This represents the average serum testosterone level over a period starting from time 0 (zero) hours to […] post-administration of dose. • Cavg t12-24: The average serum concentration of testosterone obtained by dividing the AUCt12-t24 value by 12. This represents the average serum testosterone level over the second half of the 24-hours post-administration of dose period; i.e., from a period starting from time 12 hours to time 24 hours post-administration of dose.

[1] = starting dose 100 (±50) mg T equivalent QD or BID
[2] = starting dose 300 (±50) mg T equivalent QD
[3] = starting dose 350 (±100) mg T equivalent BID
[4] = starting dose 1000 (±200) mg T equivalent QD or BID

In the case of CCCCCCCCCCCCC(=O)O[C@H]1CC[C@H]2[C@@H]3CCC4=CC(=O)CC[C@]4(C)[C@H]3CC[C@]12C [(17-β)-3-Oxoandrost-4-en-17-yl tridecanoate], the “% Responders with Cave t0-t24 (ng/dL) 300-1140” value (“% Responders with Cave t0-t24” for short) [1] is reported as 50-65%, the “% Responders with Cmax (ng/dL) 1800-2500” value [1] is reported as 0-5% and the “% Responders with Cmax (ng/dL) >2500” value [1] is reported as 0-1%. The “% Responders with Cmax (ng/dL) ≤1500” value [1] was 100%, the “% Responders with Cmax (ng/dL) 1800-2500” value [2] was 0-5% and the “% Responders with Cmax (ng/dL) >2500” value [2] was 0-1%. The “% Responders with Cmax (ng/dL) ≤1500” value [2] was 100%, the “% Responders with Cave t0-t24” value (starting dose 300 (±50) mg T equivalent QD, 12-20% EAPI formulation) was 100% and the “% Responders with Cave t0-t24” value [3] was 100%. The “% Responders with Cmax (ng/dL) 1800-2500” value [3] was 0-5%, the “% Responders with Cmax (ng/dL) >2500” value [3] was 0-1% and the “% Responders with Cmax (ng/dL) ≤1500” value [3] was 100%. The “% Responders with Cave t0-t24” value [4] was 100%, the “% Responders with Cmax (ng/dL) 1800-2500” value [4] was 20-30% and the “% Responders with Cmax (ng/dL) >2500” value [4] was 60-80%. The “% Responders with Cmax (ng/dL) ≤1500” value [4] was 0%.
